Assay results as given in patent US20170045513A1, “METHODS OF DIAGNOSING CELIAC DISEASE USING IP-10” (ImmusanT, Inc., priority 2014, published 2017).
Non-standard residues stand in square brackets, D forms with d. pGlu = O=C1CC[C@@H](C(=O)O)N1

Key:
Assay type in all cases: cell-based, human
[1] = test system: gluten-reactive T cells; assay: 96-well plate whole blood cytokine release, IFNγ by MAGPIX multiplex bead assay; settings: for Percent of maximal response to individual gluten peptides, IFNg: after oral gluten challenge; for IFNγ WB MAGPIX % max Mean: n = 8, blood after oral gluten challenge, individual peptides 5 μM (Peptide 2* of P14, Pepscan: 10 μg/mL (5.45 μM))
[2] = test system: gluten-reactive T cells; assay: Cytokine release assays taken together (IFNγ ELISpot, whole blood IFNγ and IP-10, in-tube IFNγ ELISA); settings: for cytokine release / immunogenicity of individual peptide: HLA-DQ2.5+ celiac disease subjects after gluten challenge
Method in brief: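 Whole blood with peptides (P3 0.05-50 μg/mL; P13/P14 0.025-25 μM; […]), 24 h, 37 °C; plasma IFNγ/IP-10 by multiplex beads. Tube assay: 1 mL blood with P3 or CEF, 24 h, plasma IFNγ ELISA; elevated if >7.2 pg/mL above medium tube and SI >1.25. ELISpot overnight on fresh PBMC.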

[3] = test system: gluten-reactive T cells; assay: Overnight IFNγ ELISpot assay with fresh PBMC; settings: for Percent of maximal response to individual gluten peptides, ELISp: after oral gluten challenge; for IFNγ ELISpot % max Mean: n = 5, blood after oral gluten challenge, individual peptides 5 μM (Peptide 2* of P14, Pepscan: 10 μg/mL (5.45 μM))
Method in brief: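 Read-out is IFNγ spot-forming units per well, counted automatically after overnight culture of fresh PBMC (0.4 million/well) with single peptides (duplicate) or pools (triplicate). Donors: HLA-DQ2.5+ celiac patients on gluten-free diet, bled pre- and day 6 after 3-day oral gluten challenge.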

[4] = blood collected after oral gluten challenge

Substance	Percent of maximal response to individual gluten peptides, IFNg ([1]; Subject 2, Max. 116 pg/mL)	Percent of maximal response to individual gluten peptides, IFNg ([1]; Subject 3, Max. 799 pg/mL)	Percent of maximal response to individual gluten peptides, IFNg ([1]; Subject 4, Max. 136 pg/mL)	Percent of maximal response to individual gluten peptides, IFNg ([1]; Subject 6, Max. 72 pg/mL)	Percent of maximal response to individual gluten peptides, IFNg ([1]; Subject 7, Max. 17 pg/mL)	Percent of maximal response to individual gluten peptides, IFNg ([1]; Subject 8, Max. 47 pg/mL)	Percent of maximal response to individual gluten peptides, IFNg ([1]; Subject 9, Max. 67 pg/mL)	Percent of maximal response to individual gluten peptides, IFNg ([1]; Subject 10, Max. 229 pg/mL)	IFNγ WB MAGPIX % max Mean [1] [% max]	activity relative to Peptide 14 in the cytokine release assays [2, 4]	Percent of maximal response to individual gluten peptides, ELISp ([3]; Subject 3, Max. 18 SFU)	Percent of maximal response to individual gluten peptides, ELISp ([3]; Subject 4, Max. 36 SFU)	Percent of maximal response to individual gluten peptides, ELISp ([3]; Subject 6, Max. 16 SFU)	Percent of maximal response to individual gluten peptides, ELISp ([3]; Subject 8, Max. 17 SFU)	Percent of maximal response to individual gluten peptides, ELISp ([3]; Subject 10, Max. 11 SFU)	IFNγ ELISpot % max Mean [3] [% max]	whole blood IFNγ release relative to that stimulated by Peptide 14 ([1]; whole blood incubations after oral gluten challenge)	rank of activity among individual gluten peptides [2, 4]	IFNγ ELISpot response relative to Peptide 14 5 μM ([3]; Peptide 3 10 μg/mL (5.3 μM))	cytokine release / immunogenicity of individual peptide [2]
(pE)QPYPQPELPYPQPQ-amide ([pGlu]QPYPQPELPYPQPQ-NH2; SMILES CC(C)C[C@H](NC(=O)[C@H](CCC(=O)O)NC(=O)[C@@H]1CCCN1C(=O)[C@H](CCC(N)=O)NC(=O)[C@@H]1CCCN1C(=O)[C@H](Cc1ccc(O)cc1)NC(=O)[C@@H]1CCCN1C(=O)[C@H](CCC(N)=O)NC(=O)[C@@H]1CCC(=O)N1)C(=O)N1CCC[C@H]1C(=O)N[C@@H](Cc1ccc(O)cc1)C(=O)N1CCC[C@H]1C(=O)N[C@@H](CCC(N)=O)C(=O)N1CCC[C@H]1C(=O)N[C@@H](CCC(N)=O)C(N)=O) [Peptide 15]	46 % of max	5 % of max	24 % of max	5 % of max	6 % of max	4 % of max	100 % of max	7 % of max	25	no more than two-thirds as active as Peptide 14	11 % of max	17 % of max	31 % of max	6 % of max	0 % of max	13	–	–	–	–
(pE)PEQPIPEQPQPYPQQ-amide ([pGlu]PEQPIPEQPQPYPQQ-NH2; SMILES CC[C@H](C)[C@H](NC(=O)[C@@H]1CCCN1C(=O)[C@H](CCC(N)=O)NC(=O)[C@H](CCC(=O)O)NC(=O)[C@@H]1CCCN1C(=O)[C@@H]1CCC(=O)N1)C(=O)N1CCC[C@H]1C(=O)N[C@@H](CCC(=O)O)C(=O)N[C@@H](CCC(N)=O)C(=O)N1CCC[C@H]1C(=O)N[C@@H](CCC(N)=O)C(=O)N1CCC[C@H]1C(=O)N[C@@H](Cc1ccc(O)cc1)C(=O)N1CCC[C@H]1C(=O)N[C@@H](CCC(N)=O)C(=O)N[C@@H](CCC(N)=O)C(N)=O) [Peptide 3]	35 % of max	92 % of max	66 % of max	63 % of max	6 % of max	89 % of max	60 % of max	81 % of max	62	–	50 % of max	83 % of max	69 % of max	53 % of max	9 % of max	53	one-third less	second most active	only one-half	–
(pE)PEQPEQPFPEQPQQ-amide ([pGlu]PEQPEQPFPEQPQQ-NH2; SMILES NC(=O)CC[C@H](NC(=O)[C@H](CCC(N)=O)NC(=O)[C@@H]1CCCN1C(=O)[C@H](CCC(N)=O)NC(=O)[C@H](CCC(=O)O)NC(=O)[C@@H]1CCCN1C(=O)[C@H](Cc1ccccc1)NC(=O)[C@@H]1CCCN1C(=O)[C@H](CCC(N)=O)NC(=O)[C@H](CCC(=O)O)NC(=O)[C@@H]1CCCN1C(=O)[C@H](CCC(N)=O)NC(=O)[C@H](CCC(=O)O)NC(=O)[C@@H]1CCCN1C(=O)[C@@H]1CCC(=O)N1)C(N)=O) [Peptide 11]	0 % of max	0 % of max	0 % of max	0 % of max	0 % of max	0 % of max	0 % of max	0 % of max	0	–	0 % of max	3 % of max	6 % of max	6 % of max	0 % of max	3	–	–	–	weak or not distinguishable from medium alone
(pE)PQPYPEQPQPFPQQ-amide ([pGlu]PQPYPEQPQPFPQQ-NH2; SMILES NC(=O)CC[C@H](NC(=O)[C@H](CCC(N)=O)NC(=O)[C@@H]1CCCN1C(=O)[C@H](Cc1ccccc1)NC(=O)[C@@H]1CCCN1C(=O)[C@H](CCC(N)=O)NC(=O)[C@@H]1CCCN1C(=O)[C@H](CCC(N)=O)NC(=O)[C@H](CCC(=O)O)NC(=O)[C@@H]1CCCN1C(=O)[C@H](Cc1ccc(O)cc1)NC(=O)[C@@H]1CCCN1C(=O)[C@H](CCC(N)=O)NC(=O)[C@@H]1CCCN1C(=O)[C@@H]1CCC(=O)N1)C(N)=O) [Peptide 8]	35 % of max	24 % of max	39 % of max	6 % of max	0 % of max	42 % of max	5 % of max	45 % of max	25	approximately one-half to one-fifth as active as Peptide 14	44 % of max	64 % of max	31 % of max	18 % of max	27 % of max	37	–	–	–	–
(pE)QPFPQPEQPFSQQ-amide ([pGlu]QPFPQPEQPFSQQ-NH2; SMILES NC(=O)CC[C@H](NC(=O)[C@H](CCC(N)=O)NC(=O)[C@H](CO)NC(=O)[C@H](Cc1ccccc1)NC(=O)[C@@H]1CCCN1C(=O)[C@H](CCC(N)=O)NC(=O)[C@H](CCC(=O)O)NC(=O)[C@@H]1CCCN1C(=O)[C@H](CCC(N)=O)NC(=O)[C@@H]1CCCN1C(=O)[C@H](Cc1ccccc1)NC(=O)[C@@H]1CCCN1C(=O)[C@H](CCC(N)=O)NC(=O)[C@@H]1CCC(=O)N1)C(N)=O) [Peptide 7]	60 % of max	2 % of max	8 % of max	0 % of max	0 % of max	0 % of max	0 % of max	1 % of max	9	–	0 % of max	11 % of max	6 % of max	0 % of max	9 % of max	5	–	–	–	weak or absent
